# Molecular target: T1, recombinant human GST-SYK (Homo sapiens, UniProt P43405)
# T1 construct: purchased Carna Biosciences 08-176
# Test: Homogeneous Time-Resolved Fluorescence (HTRF) assay for the recombinant human Syk enzyme
# Format: biochemical
# Details: HTRF assay, recombinant human GST-SYK; IC50 given as class symbols; read-out: rhSYK Activity
# Method: Homogeneous Time-Resolved Fluorescence (HTRF) Assay for the Recombinant Human Syk Enzyme
# A recombinant GST-hSYK fusion protein was used to measure potency of compounds to inhibit human Syk activity. The recombinant human GST-SYK (Carna Biosciences #08-176) ([…]) was incubated with various concentrations of the inhibitor diluted in DMSO (0.1% final concentration) for 10 minutes at room temperature in 15 mM Tris-HCl (pH 7.5), 0.01% tween 20, 2 mM DTT in 384 well plate format. To initiate the reaction the biotinylated substrate peptide (250 nM final concentration) that contains the phosphorylation site for Syk was added with magnesium (5 mM final concentration) and ATP (25 μM final concentration). Final volume of the reaction was 10 μL. Phosphorylation of the peptide was allowed to proceed for 45′ at room temperature. To quench the reaction and detect the phosphorylated product, 2 nM of a Europium-anti-phosphotyrosine antibody (Perkin Elmer #AD0161) and 70 nM SA-APC (Perkin-Elmer #CR130-100) were added together in 15 mM Tris pH 7.5, 40 mM EDTA, 0.01% tween 20. Final volume of the quenching solution was 10 μL. The resulting HTRF signal was measured after 30 minutes on an EnVision (Perkin-Elmer) reader using a time-resolved fluorescence protocol.
row,IC50 [nM],Structure (SMILES)
1,100 to 1000,"CCCCOC(=O)C1CCC(C(C)(O)c2ccc(-c3cc(C)cc(Nc4nccc(C(F)(F)F)n4)c3)cn2)CC1 (single isomer, unassigned) [Example 9.52, butyl trans-4-{(1R or 1S)-1-hydroxy-1-[5-(3-methyl-5-{[4-(trifluoromethyl)pyrimidin-2-yl]amino}phenyl)pyridin-2-yl]ethyl}cyclohexanecarboxylate]"
2,100 to 1000,"CCCCOC(=O)C1CCC(C(C)(O)c2ccc(-c3cc(C)cc(Nc4ncc(Cl)c(C)n4)c3)cn2)CC1 (single isomer, unassigned) [Example 9.53, butyl trans-4-[(1R or 1S)-1-(5-{3-[(5-chloro-4-methylpyrimidin-2-yl)amino]-5-methylphenyl}pyridin-2-yl)-1-hydroxyethyl]cyclohexanecarboxylate]"
3,< 100,"Cc1cc(Nc2nccc(C(F)(F)F)n2)cc(-c2ccnc(C3(O)CCC(C(=O)O)C(C)(C)C3)c2)c1 (single isomer, unassigned) [Example 9.59, (1S,4R or 1R,4S)-4-hydroxy-2,2-dimethyl-4-[4-(3-methyl-5-{[4-(trifluoromethyl)pyrimidin-2-yl]amino}phenyl)pyridin-2-yl]cyclohexanecarboxylic acid]"
4,< 100,"Cc1cc(Nc2ncc(Cl)c(C)n2)cc(-c2ccc(C(C)(O)C3CCC(C(=O)O)CC3)nc2)c1 (single isomer, unassigned) [Example 9.82, trans-4-[(1R or 1S)-1-(5-{3-[(5-chloro-4-methylpyrimidin-2-yl)amino]-5-methylphenyl}pyridin-2-yl)-1-hydroxyethyl]cyclohexanecarboxylic acid]"
5,< 100,"Cc1cc(Nc2ncc(F)c(C)n2)cc(-c2ccc(C(C)(O)C3CCC(C(=O)O)CC3)nc2)c1 (single isomer, unassigned) [Example 9.83, trans-4-[(1R or 1S)-1-(5-{3-[(5-fluoro-4-methylpyrimidin-2-yl)amino]-5-methylphenyl}pyridin-2-yl)-1-hydroxyethyl]cyclohexanecarboxylic acid]"
6,100 to 1000,"OC1(c2cccc(-c3cc(Nc4nccc(C(F)(F)F)n4)cc(N4CCOCC4)c3)n2)CCC1 [Example 1.1, 1-{6-[3-(Morpholin-4-yl)-5-{[4-(trifluoromethyl)pyrimidin-2-yl]amino}phenyl]pyridin-2-yl}cyclobutanol]"
7,< 100,"FC(F)(F)c1ccnc(Nc2cc(-c3ccccn3)cc(N3CCOCC3)c2)n1 [Example 1.2, N-(3-morpholin-4-yl-5-pyridin-2-ylphenyl)-4-(trifluoromethyl)pyrimidin-2-amine]"
8,< 100,"FC(F)(F)c1ccnc(Nc2cc(-c3cccc(N4CCOCC4)n3)cc(N3CCOCC3)c2)n1 [Example 1.3, N-[3-morpholin-4-yl-5-(6-morpholin-4-ylpyridin-2-yl)phenyl]-4-(trifluoromethyl)pyrimidin-2-amine]"
9,100 to 1000,"OCCN(CCO)c1cccc(-c2cc(Nc3nccc(C(F)(F)F)n3)cc(N3CCOCC3)c2)n1 [Example 1.4, 2,2′-{[6-(3-morpholin-4-yl-5-{[4-(trifluoromethyl)pyrimidin-2-yl]amino}phenyl)pyridin-2-yl]imino}diethanol]"
10,< 100,"Cc1cc(Nc2nccc(C(F)(F)F)n2)cc(-c2ccc(C(=O)O)nc2)c1 [Example 2.1, 5-(3-Methyl-5-{[4-(trifluoromethyl)pyrimidin-2-yl]amino}phenyl)pyridine-2-carboxylic acid]"
11,< 100,COc1ccnc(Nc2cc(C)cc(-c3cccc(CCC(=O)O)n3)c2)n1 [Example 2.2]
12,1000 to 10000,"COc1cccc(-c2cccc(Nc3nccc(C(F)(F)F)n3)c2)n1 [Example 2.3, N-[3-(6-methoxypyridin-2-yl)phenyl]-4-(trifluoromethyl)pyrimidin-2-amine]"
13,100 to 1000,"CCC(O)(CC)c1cccc(-c2cccc(Nc3nccc(C(F)(F)F)n3)c2)n1 [Example 2.4, 3-[6-(3-{[4-(trifluoromethyl)pyrimidin-2-yl]amino}phenyl)pyridin-2-yl]pentan-3-ol]"
14,100 to 1000,"CCOC(=O)Cc1ccc(-c2cccc(Nc3nccc(C(F)(F)F)n3)c2)nc1 [Example 2.5, ethyl [6-(3-{[4-(trifluoromethyl)pyrimidin-2-yl]amino}phenyl)pyridin-3-yl]acetate]"
15,100 to 1000,"CS(=O)(=O)c1ccc(-c2cccc(Nc3nccc(C(F)(F)F)n3)c2)nc1 [Example 2.6, N-{3-[5-(methylsulfonyl)pyridin-2-yl]phenyl}-4-(trifluoromethyl)pyrimidin-2-amine]"
16,100 to 1000,"NC(=O)c1ccnc(-c2cccc(Nc3nccc(C(F)(F)F)n3)c2)c1 [Example 2.7, 2-(3-{[4-(trifluoromethyl)pyrimidin-2-yl]amino}phenyl)pyridine-4-carboxamide]"
17,100 to 1000,"NC(=O)c1ccc(-c2cccc(Nc3nccc(C(F)(F)F)n3)c2)nc1 [Example 2.8, 6-(3-{[4-(trifluoromethyl)pyrimidin-2-yl]amino}phenyl)pyridine-3-carboxamide]"
18,100 to 1000,"Cc1ccc(S(=O)(=O)Nc2ccc(-c3cccc(Nc4nccc(C(F)(F)F)n4)c3)nc2)cc1 [Example 2.9, 4-methyl-N-[6-(3-{[4-(trifluoromethyl)pyrimidin-2-yl]amino}phenyl)pyridin-3-yl]benzenesulfonamide]"
19,< 100,"Cc1cc(Nc2nccc(C(F)(F)F)n2)cc(-c2ccc(N)c(O)n2)c1 [Example 2.10, 3-amino-6-(3-methyl-5-{[4-(trifluoromethyl)pyrimidin-2-yl]amino}phenyl)pyridin-2-ol]"
20,100 to 1000,"O=C(O)c1ccnc(-c2cccc(Nc3nccc(C(F)(F)F)n3)c2)c1 [Example 2.11, 2-(3-{[4-(trifluoromethyl)pyrimidin-2-yl]amino}phenyl)pyridine-4-carboxylic acid]"
21,100 to 1000,"O=C(O)c1cccc(-c2cccc(Nc3nccc(C(F)(F)F)n3)c2)n1 [Example 2.12, 6-(3-{[4-(trifluoromethyl)pyrimidin-2-yl]amino}phenyl)pyridine-2-carboxylic acid]"
22,< 100,"Cc1cc(Nc2nccc(C(F)(F)F)n2)cc(-c2cccc(C(=O)O)n2)c1 [Example 2.13, 6-(3-methyl-5-{[4-(trifluoromethyl)pyrimidin-2-yl]amino}phenyl)pyridine-2-carboxylic acid]"
23,1000 to 10000,"CCOC(=O)CCc1cccc(-c2cccc(Nc3nccc(C(F)(F)F)n3)c2)n1 [Example 2.14, ethyl 3-[6-(3-{[4-(trifluoromethyl)pyrimidin-2-yl]amino}phenyl)pyridin-2-yl]propanoate]"
24,100 to 1000,"O=C(O)CCc1ccc(-c2cccc(Nc3nccc(C(F)(F)F)n3)c2)nc1 [Example 2.16, 3-[6-(3-{[4-(trifluoromethyl)pyrimidin-2-yl]amino}phenyl)pyridin-3-yl]propanoic acid]"
25,100 to 1000,"O=C(O)CCc1cccc(-c2cccc(Nc3nccc(C(F)(F)F)n3)c2)n1 [Example 2.17, 3-[6-(3-{[4-(trifluoromethyl)pyrimidin-2-yl]amino}phenyl)pyridin-2-yl]propanoic acid]"
26,100 to 1000,"O=C(O)CCc1ccnc(-c2cccc(Nc3nccc(C(F)(F)F)n3)c2)c1 [Example 2.18, 3-[2-(3-{[4-(trifluoromethyl)pyrimidin-2-yl]amino}phenyl)pyridin-4-yl]propanoic acid]"

# Same assay, conditions: recombinant GST-hSYK, 25 μM ATP, HTRF; read-out: IC50 (inhibition of human Syk activity)
row,IC50 [nM],Structure (SMILES)
1,144,"OC1(c2cccc(-c3cc(Nc4nccc(C(F)(F)F)n4)cc(N4CCOCC4)c3)n2)CCC1 [Example 1.1, 1-{6-[3-(Morpholin-4-yl)-5-{[4-(trifluoromethyl)pyrimidin-2-yl]amino}phenyl]pyridin-2-yl}cyclobutanol]"
